# Experimental data from patent publication US8536196B2, “Substituted 1,3-dioxanes useful as PPAR modulators” (Evolva SA, priority 2007, dated 2013).
# Legend:
# mPPARalphaLBD = target: T1, mPPARalphaLBD (Mus musculus, UniProt P23204); assay: PPARalpha transactivation assay; type: cell-based
# T1 construct: expressed in transfected cells
# T1 sequence (P23204 239-466 limits assumed): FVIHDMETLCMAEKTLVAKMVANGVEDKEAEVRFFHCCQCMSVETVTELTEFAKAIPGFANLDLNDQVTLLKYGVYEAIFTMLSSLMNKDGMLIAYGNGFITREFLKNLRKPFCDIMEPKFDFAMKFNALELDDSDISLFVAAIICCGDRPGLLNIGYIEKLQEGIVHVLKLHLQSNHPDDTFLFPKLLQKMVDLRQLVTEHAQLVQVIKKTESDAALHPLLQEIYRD
# Description: This example describes a transactivation assay for determining PPARalpha modulating activity.
# DPD and other ligands are tested for their ability to transactivate PPARalpha essentially as described in Example 22.
# PPARgamma (h) = target: T2, PPARgamma (h) (Homo sapiens, UniProt P37231); assay: Human recombinant (E. coli) PPARgamma (h) binding assay; details: @ 10 μM
# T2 construct: host or cells: E. coli
# T2 sequence (P37231 1-505): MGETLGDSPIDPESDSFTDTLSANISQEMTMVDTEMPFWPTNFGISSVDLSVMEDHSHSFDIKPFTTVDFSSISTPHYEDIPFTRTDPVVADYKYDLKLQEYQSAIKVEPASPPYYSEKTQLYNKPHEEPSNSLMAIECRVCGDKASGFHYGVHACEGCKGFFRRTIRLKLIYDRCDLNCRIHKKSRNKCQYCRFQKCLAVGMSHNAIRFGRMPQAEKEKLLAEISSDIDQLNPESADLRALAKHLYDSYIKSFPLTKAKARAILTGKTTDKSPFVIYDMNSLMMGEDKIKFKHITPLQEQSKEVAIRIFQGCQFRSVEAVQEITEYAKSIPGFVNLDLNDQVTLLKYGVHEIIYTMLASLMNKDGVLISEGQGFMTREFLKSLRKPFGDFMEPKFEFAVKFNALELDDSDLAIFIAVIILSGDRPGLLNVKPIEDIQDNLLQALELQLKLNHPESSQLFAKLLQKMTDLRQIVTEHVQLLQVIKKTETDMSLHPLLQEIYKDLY
# Description: The results are expressed as a percent of control specific binding ((measured specific binding/control specific binding)×100) obtained in the presence of the test compounds. The IC50 values (concentration causing a half-maximal inhibition of control specific binding) and Hill coefficients (nH) were determined by non-linear regression analysis of the competition curves generated with mean replicate values using Hill equation curve fitting (Y=D+[(A D)/(1+(C/C50)nH)], where Y=specific binding, D=minimum specific binding, A=maximum specific binding, C=compound concentration, C50=IC50, and nH=slope factor). This analysis was performed using a software developed at Cerep (Hill software) and validated by comparison with data generated by the commercial software SigmaPlot® 4.0 for Windows® (© 1997 by SPSS Inc.). The inhibition constants (Ki) were calculated using the Cheng Prusoff equation (Ki=IC50/(1+(L/KD)), where L=concentration of radioligand in the assay, and KD=affinity of the radioligand for the receptor).
# KKA^y mice = assay: Glucose lowering effect in KKAy mouse model; type: in vivo; details: 5 mg/kg BID oral gavage 14 days, Day 14, average ± S.E.M., 5 mg/kg
# Description: 52 male KKA^y mice were obtained commercially (e.g., from Clea Japan) at an age of 6 weeks and put on a high fat diet upon arrival. Individual mice were housed in IVC Type II cages during both the acclimatization and the experimental phase. Both food (high fat diet) and water were supplied ad libitum.
# Mice were randomized into treatment groups according to their 4-h fasting blood glucose.
# 4 hours after the last administration, non-fasting conditions.
# Blood was collected into heparin containing glass capillaries which were subsequently centrifuged in a “Haematokrit 24” centrifuge (Hettich) at 15′200×g for 10 min at room temperature to obtain the hematocrit value.
# The following serum parameters were determined on a COBAS INTEGRA 800 auto analyzer (Roche Diagnostics, Switzerland) using the reagents and protocols provided by the supplier.
# All measurements were made on Day 14 of administration, except for the food intake and body weight measurements that were made on Day 12.
# Gal4-PPARgammaLBD = target: T3, Gal4-PPARgammaLBD (Homo sapiens, UniProt P37231); assay: PPARgamma transactivation assay (Gal4-PPARgammaLBD, UASx4-TK-luc reporter); type: cell-based
# T3 construct: expressed in transfected cells; host or cells: mouse embryonic fibroblasts (MEFs) or ME3 cells
# T3 sequence (P37231 204-505): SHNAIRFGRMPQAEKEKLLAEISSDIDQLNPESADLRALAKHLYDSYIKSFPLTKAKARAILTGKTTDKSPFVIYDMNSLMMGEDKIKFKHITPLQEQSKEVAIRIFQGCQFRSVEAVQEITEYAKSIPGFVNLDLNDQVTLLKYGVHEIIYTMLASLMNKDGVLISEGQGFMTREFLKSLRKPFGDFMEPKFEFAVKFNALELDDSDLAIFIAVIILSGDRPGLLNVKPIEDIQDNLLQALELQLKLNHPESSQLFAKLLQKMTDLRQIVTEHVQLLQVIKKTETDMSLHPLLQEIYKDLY
# Source text: This is an example of a transactivation assay for determining PPAR gamma modulating activity.
# The UASx-4-TK-luc reporter construct (where UAS refers to “upstream activator sequence”) contains four Gal4-responsive elements. The plasmid Gal4-PPARgammaLBD encodes a Gal4-DBD-PPARgamma-LBD fusion protein (i.e. the DNA-binding domain, DBD, of Gal4 fused to the ligand-binding domain, LBD, of PPARgamma) capable of transactivating the UASx-4-TK-luc reporter plasmid by binding to the UAS. The CMV-beta-galactosidase plasmid (where CMV is cytomegalovirus) is used for normalization of experimental values.
# The cells were replated, typically in 24 well plates, so that at the time of transfection the cells are 50-70% confluent.
# Briefly, per well in a 24 well plate, UASx4TKIuc (0.2 μg) Gal4-PPARgammaLBD (or pM-hPPARgamma-LBD; 0.1 μg) and CMV-beta-galactosidase (0.05 μg) in 30 μL DMEM (free of serum and antibiotics) is mixed with 30 μL DMEM (free of serum and antibiotics) containing 1 μL metafectenein. The mixture is incubated at room temperature for 20 min to allow formation of nucleic acid-lipid complexes and then approximately 60 μL is added to each well containing the 50-60% confluent cells. […] Cells were harvested after 12-24 hours and luciferase and beta-galactosidase activities were measured according to standard protocols.
# “−” means that testing was not performed.
# MEFs / 3T3-L1 = assay: Adipocyte differentiation induction assay (Oil Red O staining); type: cell-based, mouse; parameters: key to Adip. (adipocyte differentiation): 0: similar results to DPD; −1: even less adipocyte differentiation; +1: more adipocyte differentiation (both relative to DPD); details: for Adip. (adipocyte differentiation): relative to DPD (SN1)
# Description: This example describes an assay for determining adipocyte differention. Compounds are tested to see whether they induce adipocyte differentiation and also to see whether they inhibit adipocyte differention.
# MEFs were grown in AmnioMax basal medium (Gibco) supplemented with 7.5% Amniomax supplement C-100 (Gibco), 7.5% Fetal Bovine Serum (FBS), 2 mM Glutamine, 62.5 μg/ml penicillin and 100 μg/ml Streptomycin (growth medium). At confluence, MEFs were induced to differentiation in growth medium with the addition of 1 μM dexamethasone (Sigma) 0.5 mM isobutylmethylxanthine (Sigma), 5 μg/ml insulin (Sigma) and 10 μM test compound dissolved in DMSO or DMSO alone. Medium was subsequently renewed every 48 hrs with growth media supplemented with 5 μg/ml Insulin and ligand or DMSO.
# Briefly, to test compounds as inducers of adipocyte differentiation, 3T3-L1 are grown to confluence in DMEM with 10% Calf serum (CS), typically in 24 well dishes. At 2 days post confluence (day 0), cells are induced to differentiate with DMEM supplemented with 10% fetal bovine serum (FBS), 1 μM dexamethasone and the test compound (01, 1 and 10 μM). BRL49653 (1.0 μM dissolved in 100% DMSO) is used as a positive control. After 48 h, the cells are re-fed with DMEM containing 10% FBS supplemented with the test compound or the positive control. From day 4, cells are grown in DMEM with 10% FBS and are changed every second day until day 8. At day 8, cells are stained with Oil Red O as described below.
# Cells cultured as described above are used for Oil Red staining. Dishes are washed in PBS and cells were fixed in 3.7% paraformaldehyde for 1 h and stained with oil red O as described in (Hansen et al 1999). Oil red O solution stock solution is prepared by dissolving 0.5 g of Oil Red O (Sigma) in 100 mL of isopropanol. Oil re 0 working solution is prepared by diluting a stock solution with water (6:4) followed by filtration.
# Table II summarizes results obtained with different analogs of DPD (SN1), “0” representing similar results to DPD, “−1” representing even less adipocyte differentiation, “+1” representing more adipocyte differentiation (both relative to DPD) and “−” meaning not assayed.
smiles,measurement,setting,value
"CC(C)(Sc1ccc(CCN(CCCCC2CCCCC2)C(=O)NC2CCCCC2)cc1)C(=O)O [GW7647, reference compound]",increase in PPARalpha transactivation,mPPARalphaLBD,over 2 fold
"COc1ccc(C(=O)NCc2cccnc2)cc1C(=O)NCc1cccnc1 [Picotamide, reference compound]",PPARgamma binding @ 10 μM,PPARgamma (h),no binding
"CN(CCOc1ccc(CC2SC(=O)NC2=O)cc1)c1ccccn1 (centres unmarked) [Rosiglitazone, rosiglitazone, reference compound]",Heart weight,KKA^y mice,increased
O=C(O)CC/C=C\C[C@@H]1COC(c2coc3ccc(Cl)cc3c2=O)O[C@@H]1c1ccccc1O (some centres unmarked) [compound 13],PPARgamma activity (summary in words),Gal4-PPARgammaLBD,higher potency
same,adipocyte differentiation (summary in words),MEFs / 3T3-L1,low or no adipocyte differentiation
same,Adip. (adipocyte differentiation),MEFs / 3T3-L1,−1
COc1ccccc1[C@H]1OC(C)(C)OC[C@H]1C/C=C\CCCCC(=O)O [compound 37],PPAR (PPARgamma activating activity),Gal4-PPARgammaLBD; level of activity relative to 10 μM DPD (SN1),Inactive
same,Adip. (adipocyte differentiation),MEFs / 3T3-L1,0
